Measurements published in US20250179052A1, “PYRIMIDINYL-OXY-QUINOLINE BASED HERBICIDAL COMPOUNDS” (SYNGENTA CROP PROTECTION AG, priority 2022, published 2025).

What was measured:
Conditions in all cases: 250 g/ha, evaluated after 13 days, five-point scale
[1] = system: Amaranthus retoflexus (AMARE); assay: Post-emergence herbicidal glasshouse test; format: in vivo
AMAPA [2] = assay: Post-emergence herbicidal glasshouse test; format: in vivo, Amaranthus tuberculatus
[3] = system: Echinochloa crus-galli (ECHCG); assay: Post-emergence herbicidal glasshouse test; format: in vivo
[4] = system: Ipomoea hederacea (IPOHE); assay: Post-emergence herbicidal glasshouse test; format: in vivo
Setaria faberi (SETFA) [5] = assay: Post-emergence herbicidal glasshouse test; format: in vivo
[6] = system: Amaranthus retoflexus (AMARE); assay: Pre-emergence herbicidal glasshouse test; format: in vivo
AMAPA [7] = assay: Pre-emergence herbicidal glasshouse test; format: in vivo, Amaranthus tuberculatus
[8] = system: Echinochloa crus-galli (ECHCG); assay: Pre-emergence herbicidal glasshouse test; format: in vivo
[9] = system: Ipomoea hederacea (IPOHE); assay: Pre-emergence herbicidal glasshouse test; format: in vivo
Setaria faberi (SETFA) [10] = assay: Pre-emergence herbicidal glasshouse test; format: in vivo

| SMILES | percentage damage caused to the plant, AMARE [1] | percentage damage caused to the plant, AMAPA (AMAPA [2]) | percentage damage caused to the plant, ECHCG [3] | percentage damage caused to the plant, IPOHE [4] | percentage damage caused to the plant, SETFA (Setaria faberi (SETFA) [5]) | percentage damage caused to the plant, AMARE [6] | percentage damage caused to the plant, AMAPA (AMAPA [7]) | percentage damage caused to the plant, ECHCG [8] | percentage damage caused to the plant, IPOHE [9] | percentage damage caused to the plant, SETFA (Setaria faberi (SETFA) [10]) |
| --- | --- | --- | --- | --- | --- | --- | --- | --- | --- | --- |
| CCOc1ncc2c(Oc3ncc(Cl)cn3)cccc2n1 [Compound 1.063, 5-(5-chloropyrimidin-2-yl)oxy-2-ethoxy-quinazoline] | 5 (5=81-100%) | 5 (5=81-100%) | 5 (5=81-100%) | 5 (5=81-100%) | 4 (4=61-80%) | 5 (5=81-100%) | 5 (5=81-100%) | 5 (5=81-100%) | 5 (5=81-100%) | 4 (4=61-80%) |
| Cc1nc(C(F)(F)F)nc2c(C#N)ccc(Oc3ncc(Cl)cn3)c12 [Compound 1.064] | 1 (1=0-20%) | 1 (1=0-20%) | 1 (1=0-20%) | 1 (1=0-20%) | 1 (1=0-20%) | 1 (1=0-20%) | 1 (1=0-20%) | 1 (1=0-20%) | 1 (1=0-20%) | 1 (1=0-20%) |
| Cc1ccc(Oc2ncc(Cl)cn2)c2cnc(C(F)(F)F)nc12 [Compound 1.068] | 3 (3=41-60%) | 2 (2=21-40%) | 1 (1=0-20%) | 2 (2=21-40%) | 1 (1=0-20%) | 5 (5=81-100%) | 5 (5=81-100%) | 3 (3=41-60%) | 2 (2=21-40%) | 3 (3=41-60%) |
| Cc1nc(C(F)(F)Cl)nc2cccc(Oc3ncc(Cl)cn3)c12 [Compound 1.069] | 3 (3=41-60%) | 3 (3=41-60%) | 2 (2=21-40%) | 2 (2=21-40%) | 2 (2=21-40%) | 5 (5=81-100%) | 5 (5=81-100%) | 2 (2=21-40%) | 1 (1=0-20%) | 5 (5=81-100%) |
| Fc1cnc(Oc2cccc3nc(C(F)(F)F)ncc23)nc1 [Compound 1.070] | 4 (4=61-80%) | 4 (4=61-80%) | 4 (4=61-80%) | 4 (4=61-80%) | 4 (4=61-80%) | 5 (5=81-100%) | 5 (5=81-100%) | 5 (5=81-100%) | 5 (5=81-100%) | 5 (5=81-100%) |
| FC(F)(F)c1ncc2c(Oc3ncc(Cl)cn3)ccc(Br)c2n1 [Compound 1.071] | 3 (3=41-60%) | 2 (2=21-40%) | 1 (1=0-20%) | 2 (2=21-40%) | 1 (1=0-20%) | 3 (3=41-60%) | 5 (5=81-100%) | 3 (3=41-60%) | 1 (1=0-20%) | 4 (4=61-80%) |
| Cc1nc(C(F)(F)F)nc2c(Br)ccc(Oc3ncc(Cl)cn3)c12 [Compound 1.072] | 1 (1=0-20%) | 1 (1=0-20%) | 1 (1=0-20%) | 1 (1=0-20%) | 1 (1=0-20%) | 1 (1=0-20%) | 2 (2=21-40%) | 1 (1=0-20%) | 1 (1=0-20%) | 1 (1=0-20%) |
| Cc1ccc(Oc2ncc(Cl)cn2)c2c(C)nc(C(F)(F)F)nc12 [Compound 1.073] | 1 (1=0-20%) | 1 (1=0-20%) | 1 (1=0-20%) | 1 (1=0-20%) | 1 (1=0-20%) | 1 (1=0-20%) | 1 (1=0-20%) | 1 (1=0-20%) | 1 (1=0-20%) | 1 (1=0-20%) |
